IC50 data for 24 molecules are collected here from patent US8697739B2, “Bicyclic acetyl-CoA carboxylase inhibitors and uses thereof” (Novartis AG, priority 2010, dated 2014).

Molecules are shown by their SMILES.

T1 sequence (O00763 144-2458): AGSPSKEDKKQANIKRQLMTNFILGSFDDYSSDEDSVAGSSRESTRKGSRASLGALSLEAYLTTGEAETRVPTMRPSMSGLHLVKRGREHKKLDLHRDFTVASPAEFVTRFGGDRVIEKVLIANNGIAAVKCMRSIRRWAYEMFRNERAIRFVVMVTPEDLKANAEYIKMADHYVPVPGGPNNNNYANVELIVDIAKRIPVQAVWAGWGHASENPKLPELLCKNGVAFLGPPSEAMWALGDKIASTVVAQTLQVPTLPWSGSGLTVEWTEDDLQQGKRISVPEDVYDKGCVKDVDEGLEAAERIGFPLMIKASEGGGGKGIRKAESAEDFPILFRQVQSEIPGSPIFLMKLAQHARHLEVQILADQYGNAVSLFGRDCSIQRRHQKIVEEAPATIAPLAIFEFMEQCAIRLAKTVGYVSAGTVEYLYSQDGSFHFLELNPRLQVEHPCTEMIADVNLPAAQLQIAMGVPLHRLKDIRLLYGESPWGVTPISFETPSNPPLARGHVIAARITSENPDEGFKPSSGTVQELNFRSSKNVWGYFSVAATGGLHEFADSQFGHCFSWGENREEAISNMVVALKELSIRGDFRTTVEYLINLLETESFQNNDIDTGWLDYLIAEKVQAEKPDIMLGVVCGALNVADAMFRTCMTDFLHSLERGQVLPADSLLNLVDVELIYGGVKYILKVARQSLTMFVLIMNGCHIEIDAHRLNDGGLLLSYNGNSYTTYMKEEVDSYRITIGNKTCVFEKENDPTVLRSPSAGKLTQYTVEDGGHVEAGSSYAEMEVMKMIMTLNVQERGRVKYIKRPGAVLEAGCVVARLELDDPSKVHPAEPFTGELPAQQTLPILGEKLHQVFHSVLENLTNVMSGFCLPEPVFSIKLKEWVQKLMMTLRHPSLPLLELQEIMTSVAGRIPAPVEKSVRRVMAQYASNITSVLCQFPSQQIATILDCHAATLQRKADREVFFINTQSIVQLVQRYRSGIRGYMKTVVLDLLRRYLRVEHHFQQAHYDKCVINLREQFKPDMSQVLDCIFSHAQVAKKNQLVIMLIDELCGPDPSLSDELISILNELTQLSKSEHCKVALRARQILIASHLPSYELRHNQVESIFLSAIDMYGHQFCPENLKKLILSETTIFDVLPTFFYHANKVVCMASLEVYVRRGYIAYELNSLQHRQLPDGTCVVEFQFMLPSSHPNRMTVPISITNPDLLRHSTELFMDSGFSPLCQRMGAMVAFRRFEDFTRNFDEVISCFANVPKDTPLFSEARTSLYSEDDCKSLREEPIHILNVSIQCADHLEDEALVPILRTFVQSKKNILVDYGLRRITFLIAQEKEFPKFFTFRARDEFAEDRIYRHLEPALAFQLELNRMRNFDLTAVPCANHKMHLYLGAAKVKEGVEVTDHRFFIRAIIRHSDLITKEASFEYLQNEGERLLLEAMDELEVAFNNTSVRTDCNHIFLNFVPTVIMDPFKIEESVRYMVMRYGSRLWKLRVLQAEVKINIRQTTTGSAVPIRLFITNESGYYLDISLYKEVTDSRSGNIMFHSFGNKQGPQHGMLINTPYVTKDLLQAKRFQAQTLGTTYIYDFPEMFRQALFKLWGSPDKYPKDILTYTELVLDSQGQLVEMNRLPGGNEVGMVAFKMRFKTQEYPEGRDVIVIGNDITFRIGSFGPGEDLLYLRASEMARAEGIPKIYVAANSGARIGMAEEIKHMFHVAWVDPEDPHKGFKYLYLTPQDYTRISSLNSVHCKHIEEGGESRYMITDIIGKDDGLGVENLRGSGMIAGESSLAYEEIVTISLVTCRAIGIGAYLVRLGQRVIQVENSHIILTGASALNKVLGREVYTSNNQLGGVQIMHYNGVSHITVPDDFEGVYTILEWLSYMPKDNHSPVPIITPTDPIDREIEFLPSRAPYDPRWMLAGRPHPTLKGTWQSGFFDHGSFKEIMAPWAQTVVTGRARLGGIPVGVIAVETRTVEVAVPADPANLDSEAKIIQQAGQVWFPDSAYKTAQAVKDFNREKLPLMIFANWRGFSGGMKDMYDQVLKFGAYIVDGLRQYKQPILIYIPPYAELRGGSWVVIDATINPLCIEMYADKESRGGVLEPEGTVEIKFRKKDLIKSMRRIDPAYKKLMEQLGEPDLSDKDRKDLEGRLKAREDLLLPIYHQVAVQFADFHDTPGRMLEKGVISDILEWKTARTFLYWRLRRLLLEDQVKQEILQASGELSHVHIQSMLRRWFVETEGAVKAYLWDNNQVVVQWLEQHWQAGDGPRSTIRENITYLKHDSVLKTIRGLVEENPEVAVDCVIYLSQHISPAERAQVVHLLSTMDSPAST

The assay addresses T1, human acetyl-CoA carboxylase 2 (ACC2) (Homo sapiens, UniProt O00763).
T1 construct: The cDNA encoding amino acids 144 to 2458 of human acetyl-CoA carboxylase 2; made in house; host or cells: Sf9 insect cells (baculovirus, pFastBac1)
Briefly: Acetyl-CoA carboxylase enzyme assay (malonyl-CoA formation by LC/MS/MS). The class given is biochemical. The following applies: recombinant human ACC2 (aa 144-2458); read-out: IC50 ACC2. The source says:
The cDNA encoding amino acids 144 to 2458 of human acetyl-CoA carboxylase 2 (ACC2, GenBank Accession #NM_001093) was cloned into the SalI and NotI sites of pFastBac1 (Invitrogen; Carlsbad, Calif.). The resulting plasmid was used to generate a recombinant ACC2 baculovirus that was amplified and titered according to the protocols in the Bac-to-Bac baculovirus expression system manual (Invitrogen). The titered virus was used to infect Sf9 cells grown in Ex-Cell 420 serum-free medium (JRH Biosciences; Lenexa, Kans.). At 48 hours post-infection, the cells were harvested and stored at −80° C. until purification. ACC2 was purified using ammonium sulfate precipitation and anion exchange chromatography.
The enzymatic assay was run as follows: 30 μL of reaction buffer (100 mM HEPES pH 7.5, 20 mM MgCl2, 20 mM potassium citrate, 2 mM DTT) was added to a 384-well microtiter plate followed by 2 μL of the test compound (or 100% DMSO control). ACC2 protein (10 μL of a 50 nM working solution) was added to plate, which was incubated at room temperature for 15 minutes. A 30 μL addition of substrate solution (50 μM acetyl-CoA, 120 μM ATP, 2 mM KHCO3) was used to initiate the reactions which were quenched with 6% acetic acid (40 μL). ACC catalyzed malonyl-CoA formation was detected by LC/MS/MS using a Cohesive Technologies LX Series multiplex LC/MSIMS system configured with four binary pumps (Agilent Technologies; Palo Alto, Calif.), a dual arm autosampler (Leap Technologies; Cary, N.C.), and one Quattro Micro triple quadrupole mass spectrometer (Waters, Milford, Mass.), all run by Aria Software version 1.5 (Cohesive Technologies; Franklin, Mass.). Four samples were injected (20 μL) onto four Phenosphere NEXT C18 30×2 mm 5 μm columns (Phenomenex; Torrance, Calif.), eluted by four separate pumps, running identical gradients, through a column switching manifold with the one outlet fitted to the electrospray (ESI) source. Malonyl-CoA was eluted with 5 mM ammonium acetate, pH 4.5 (Buffer A) and 100% acetonitrile (Buffer B) via a step gradient. Argon was used as the collision gas and the following species were monitored via MRM detection: malonyl-CoA (853.8>346.9), internal standard (A: [^13C3]-malonyl-CoA, 857>350). The lower limit of detection is 0.3 uM for malonyl-CoA in this assay.
Consider `Cc1c(-c2ccccc2)nc2ccc(S(=O)(=O)N[C@H]3CC[C@H](C(=O)N[C@H](C)c4ccc(F)cc4)CC3)cn12` [Example 70, (1r,4R)-N-((R)-1-(4-fluorophenyl)ethyl)-4-(3-methyl-2-phenylimidazo[1,2-a]pyridine-6-sulfonamido)cyclohexanecarboxamide], for which the IC50 turned out to be 0.165 µM.

For the molecule `Cn1c(-c2ccc(CCC(=O)O)cc2)cc2ccc(S(=O)(=O)N[C@H]3CC[C@H](C(=O)N4CCCC4C(C)(C)C)CC3)cc21` (stereo partly drawn) [Example 395, 3-(4-(6-(N-((1r,4r)-4-(2-tert-butylpyrrolidine-1-carbonyl)cyclohexyl)sulfamoyl)-1-methyl-1H-indol-2-yl)phenyl)propanoic acid], the IC50 is < 0.01 µM.

Turning to `CC(C)(C)OC(=O)N1CCN(C(=O)[C@H]2CC[C@H](NS(=O)(=O)c3cnc4ccccc4c3)CC2)[C@@H](c2ccccc2)C1` [Example 84, (S)-tert-butyl 3-phenyl-4-((1r,4S)-4-(quinoline-3-sulfonamido)cyclohexanecarbonyl)piperazine-1-carboxylate], the IC50 was determined as 0.045 µM.

Take `CCOc1ccc2cc(S(=O)(=O)NC3CCC(C(=O)NC(c4ccccc4)C(C)OC(=O)C(N)C(C)C)CC3)ccc2n1` [Example 271, (S)-((1S,2S)-1-((1r,4S)-1-((1r,4S)-4-(2-ethoxyquinoline-6-sulfonamido)cyclohexanecarboxamido)-1-phenylpropan-2-yl) 2-amino-3-methylbutanoate]: the IC50 was 0.195 µM.

Turning to `Cn1c(-c2ccccc2)cc2ccc(S(=O)(=O)N[C@H]3CC[C@H](C(=O)N4CCCOCC4)CC3)cc21` [Example 402, N-((1r,4r)-4-(1,4-oxazepane-4-carbonyl)cyclohexyl)-1-methyl-2-phenyl-1H-indole-6-sulfonamide], the IC50 came out at 0.13 µM.

Regarding `Cc1ccccc1-c1nc2cc(S(=O)(=O)N[C@H]3CC[C@H](C(=O)N[C@H](C)c4ccc(F)cc4)CC3)cnc2o1` [Example 76, (1r,4R)-N-((R)-1-(4-fluorophenyl)ethyl)-4-(2-o-tolyloxazolo[5,4-b]pyridine-6-sulfonamido)cyclohexanecarboxamide], the IC50 amounted to 0.59 µM.

For the molecule `CC(C)(C)c1nnc([C@H]2CC[C@H](NS(=O)(=O)c3ccc4[nH]c(-c5cccnc5)nc4c3)CC2)o1` [Example 653, N-((1r,4r)-4-(5-tert-butyl-1,3,4-oxadiazol-2-yl)cyclohexyl)-2-(pyridin-3-yl)-1H-benzo[d]imidazole-5-sulfonamide], the IC50 was 2.03 µM.

As to `C[C@@H](NC(=O)[C@H]1CC[C@H](NS(=O)(=O)c2ccc3c(c2)OCCN3C)CC1)c1ccc(F)cc1` [Example 122, (1r,4R)-N-((R)-1-(4-fluorophenyl)ethyl)-4-(4-methyl-3,4-dihydro-2H-benzo[b][1,4]oxazine-7-sulfonamido)cyclohexanecarboxamide], the IC50 was determined as 0.016 µM.

With `C[C@@H](NC(=O)[C@H]1CC[C@H](NS(=O)(=O)c2cnc3nc(-c4ccccc4)sc3c2)CC1)c1ccc(F)cc1` [Example 52, (1r,4R)-N-((R)-1-(4-fluorophenyl)ethyl)-4-(2-phenylthiazolo[4,5-b]pyridine-6-sulfonamido)cyclohexanecarboxamide], the IC50 was determined as 0.435 µM.

For the molecule `Cc1nc2cc(S(=O)(=O)N[C@H]3CC[C@H](C(=O)N[C@H](C)c4ccc(F)cc4)CC3)ccc2[nH]1` [Example 663, (1r,4R)-N-((R)-1-(4-fluorophenyl)ethyl)-4-(2-methyl-1H-benzo[d]imidazole-5-sulfonamido)cyclohexanecarboxamide], the IC50 was 0.252 µM.

In the case of `CCCN(C)C(=O)[C@H]1CC[C@H](NS(=O)(=O)c2ccc3[nH]c(-c4ccc(N5CCN(C)CC5)cc4)nc3c2)CC1` [Example 565, (1r,4r)-N-methyl-4-(2-(4-(4-methylpiperazin-1-yl)phenyl)-1H-benzo[d]imidazole-5-sulfonamido)-N-propylcyclohexanecarboxamide], the IC50 was 0.048 µM.

Take `C=Cc1ccc2cc(S(=O)(=O)N[C@H]3CC[C@H](C(=O)N[C@H](C)c4ccc(F)cc4)CC3)ccc2n1` [Example 71, (1r,4R)-N-((R)-1-(4-fluorophenyl)ethyl)-4-(2-vinylquinoline-6-sulfonamido)cyclohexanecarboxamide]: the IC50 is 0.405 µM.

As to `O=C([C@H]1CC[C@H](NS(=O)(=O)c2ccc3cc(-c4ccc(F)cc4)[nH]c3c2)CC1)N1CCNC(C(F)(F)F)C1` (stereo partly drawn) [Example 348, 2-(4-fluorophenyl)-N-((1r,4r)-4-(3-(trifluoromethyl)piperazine-1-carbonyl)cydohexyl)-1H-indole-6-sulfonamide], the IC50 was 0.045 µM.

With `CCC1CCc2cc(S(=O)(=O)N[C@H]3CC[C@H](C(=O)N[C@H](C)c4ccc(F)cc4)CC3)ccc2N1` (stereo partly drawn) [Example 77, (1r,4R)-4-(2-ethyl-1,2,3,4-tetrahydroquinoline-6-sulfonamido)-N-((R)-1-(4-fluorophenyl)ethyl)cyclohexanecarboxamide], the IC50 came out at 0.05 µM.

As for `Cn1c(-c2ccc(CCC(=O)O)cc2)cc2ccc(S(=O)(=O)N[C@H]3CC[C@H](C(=O)N4CCCCC4)CC3)cc21` [Example 359, 3-(4-(1-methyl-6-(N-((1r,4r)-4-(piperidine-1-carbonyl)cyclohexyl)sulfamoyl)-1H-indol-2-yl)phenyl)propanoic acid], the IC50 was 0.095 µM.

Regarding `O=C([C@H]1CC[C@H](NS(=O)(=O)c2ccc3cc(-c4ccccc4)[nH]c3c2)CC1)N1CCOC[C@@H]1C1CC1` [Example 472, N-((1S,4r)-4-((S)-3-cyclopropylmorpholine-4-carbonyl)cyclohexyl)-2-phenyl-1H-indole-6-sulfonamide], the IC50 is < 0.01 µM.

For the molecule `CC(C)OC(=O)c1ccc(NS(=O)(=O)c2ccc3[nH]c(Nc4ccc(Cl)c(S(N)(=O)=O)c4)nc3c2)cc1` [Example 544, isopropyl 4-(2-(4-chloro-3-sulfamoylphenylamino)-1H-benzo[d]imidazole-5-sulfonamido)benzoate], the IC50 came out at 0.035 µM.

As to `CCCN(C)C(=O)[C@H]1CC[C@H](NS(=O)(=O)c2ccc3[nH]c(Nc4ccccc4)nc3c2)CC1` [Example 566, (1r,4r)-N-methyl-4-(2-(phenylamino)-1H-benzo[d]imidazole-5-sulfonamido)-N-propylcyclohexanecarboxamide], the IC50 is 0.118 µM.

`C[C@H](c1ccccc1)N(C)C(=O)[C@H]1CC[C@H](NS(=O)(=O)c2ccc3[nH]c(-c4ccccc4)nc3c2)CC1` [Example 578, (1r,4R)-N-methyl-4-(2-phenyl-1H-benzo[d]imidazole-5-sulfonamido)-N-((R)-1-phenylethyl)cyclohexanecarboxamide]: the IC50 was 0.061 µM.

`C[C@@H](NC(=O)[C@H]1CC[C@H](NS(=O)(=O)c2ccc3nc(OC4COC4)ccc3c2)CC1)c1ccc(F)cc1` [Example 64, (1r,4R)-N-((R)-1-(4-fluorophenyl)ethyl)-4-(2-(oxetan-3-yloxy)quinoline-6-sulfonamido)cyclohexanecarboxamide]: the IC50 was 0.042 µM.

As for `Cc1cc(-c2ccc3cc(S(=O)(=O)N[C@H]4CC[C@H](C(=O)N5CCNCC5c5ccccc5)CC4)ccc3n2)cc(C)n1` (stereo partly drawn) [Example 254, 2-(2,6-dimethylpyridin-4-yl)-N-((1r,4r)-4-(2-phenylpiperazine-1-carbonyl)cyclohexyl)quinoline-6-sulfonamide], the IC50 is 0.02 µM.

Consider `CC1CCc2cc(S(=O)(=O)N[C@H]3CC[C@H](C(=O)N[C@H](C)c4ccc(F)cc4)CC3)ccc2N1` (stereo partly drawn) [Example 169, (1r,4R)-N-((R)-1-(4-fluorophenyl)ethyl)-4-(2-methyl-1,2,3,4-tetrahydroquinoline-6-sulfonamido)cyclohexanecarboxamide], for which the IC50 came to 0.11 µM.

On to `CC1(C)CN(C(=O)[C@H]2CC[C@H](NS(=O)(=O)c3ccc4c(Cl)c(-c5ccccc5)[nH]c4c3)CC2)CCO1` [Example 469, 3-chloro-N-((1r,4r)-4-(2,2-dimethylmorpholine-4-carbonyl)cyclohexyl)-2-phenyl-1H-indole-6-sulfonamide], for which the half-inhibitory concentration (IC50) was found to be 0.09 µM.

As for `C[C@@H](NC(=O)[C@H]1CC[C@H](NS(=O)(=O)c2ccc3nc(N4CCN(C(=O)OC(C)(C)C)CC4)ccc3c2)CC1)c1ccc(F)cc1` [Example 232, tert-butyl 4-(6-(N-((1R,4r)-4-((R)-1-(4-fluorophenyl)ethylcarbamoyl)cyclohexyl)sulfamoyl)quinolin-2-yl)piperazine-1-carboxylate], the IC50 was 0.765 µM.

What is called IC50 is the concentration needed to halve the response being measured.
